Assay results from ChEMBL document CHEMBL3885881, “DrugMatrix”.

Organism: Rattus norvegicus
Experiment: DrugMatrix - Regimen: Daily Repeat
Type: toxicity, organism-based, Sprague-Dawley
Parameters: regimen Daily Repeat, gender Male, age 6-8 weeks
Conditions: in vivo, sc, route subcutaneous, […]; for ABSOLUTE BASOPHIL / ABSOLUTE EOSINOPHIL / ABSOLUTE LYMPHOCYTE / ABSOLUTE MONOCYTE / ABSOLUTE SEGMENTED NEUTROPHIL / BASOPHIL / EOSINOPHIL / ERYTHROCYTE COUNT / HEMATOCRIT / HEMOGLOBIN / LEUKOCYTE COUNT / LYMPHOCYTE / MEAN CORPUSCULAR HEMOGLOBIN / MEAN CORPUSCULAR HEMOGLOBIN CONCENTRATION / MEAN CORPUSCULAR VOLUME / MONOCYTE / NEUTROPHIL / NUCLEATED RED BLOOD CELLS / PLATELET COUNT: tissue Blood; for ALANINE AMINOTRANSFERASE / ALBUMIN / ALKALINE PHOSPHATASE / ASPARTATE AMINOTRANSFERASE / BLOOD UREA NITROGEN / CARBON DIOXIDE / CHLORIDE / CHOLESTEROL / CREATINE PHOSPHOKINASE / CREATININE / GLUCOSE / LACTATE DEHYDROGENASE / LIPASE / PHOSPHORUS / POTASSIUM / SODIUM / TOTAL BILIRUBIN / TOTAL PROTEIN / URIC ACID: tissue Plasma
[1] = 0 mg/kg, 72 h, dose level Control, time 3 day
[2] = 0 mg/kg, 120 h, dose level Control, time 5 day
[3] = 22 mg/kg, 72 h, dose level Low, time 3 day
[4] = 22 mg/kg, 120 h, dose level Low, time 5 day

`O=C(O)c1ccccc1O` [SALICYLIC ACID] was tested, and the “ABSOLUTE BASOPHIL” value [1] was 0 CELLS/uL, the “ABSOLUTE EOSINOPHIL” value [1] was 0 CELLS/uL and the “ABSOLUTE LYMPHOCYTE” value [1] was 10887 CELLS/uL. For the same compound, the “ABSOLUTE MONOCYTE” value [1] was 56 CELLS/uL, the “ABSOLUTE SEGMENTED NEUTROPHIL” value [1] was 1057 CELLS/uL and the BASOPHIL [1] was 0%. The EOSINOPHIL [1] was 0%, the “ERYTHROCYTE COUNT” value [1] was 5.31 x10E6/uL and the HEMATOCRIT [1] was 33.78%. For the same compound, the HEMOGLOBIN [1] was 13.4 G/DL, the “LEUKOCYTE COUNT” value [1] was 12 x10E3/uL and the LYMPHOCYTE [1] was 91.17%. For the same compound, the “MEAN CORPUSCULAR HEMOGLOBIN” value [1] was 25.25 pg, the “MEAN CORPUSCULAR HEMOGLOBIN CONCENTRATION” value [1] was 39.65 G/DL and the “MEAN CORPUSCULAR VOLUME” value [1] was 63.65 fL. The MONOCYTE [1] was 0.5%, the NEUTROPHIL [1] was 8.33% and the “NUCLEATED RED BLOOD CELLS” value [1] was 0 /100WBC. The “PLATELET COUNT” value [1] was 1142 x10E3/uL, the “ALANINE AMINOTRANSFERASE” value [1] was 57.17 u/L and the ALBUMIN [1] was 4.28 G/DL. The “ALKALINE PHOSPHATASE” value [1] was 425.83 u/L, the “ASPARTATE AMINOTRANSFERASE” value [1] was 93.83 u/L and the “BLOOD UREA NITROGEN” value [1] was 14.17 mg/dL. For the same compound, the “CARBON DIOXIDE” value [1] was 33.5 mmol/L, the CHLORIDE [1] was 100 MEQ/L and the CHOLESTEROL [1] was 70.33 mg/dL. For the same compound, the “CREATINE PHOSPHOKINASE” value [1] was 438.67 u/L, the CREATININE [1] was 0.19 mg/dL and the GLUCOSE [1] was 138.5 mg/dL. The “LACTATE DEHYDROGENASE” value [1] was 190.17 u/L, the LIPASE [1] was 9.83 u/L and the PHOSPHORUS [1] was 11.05 mg/dL. The POTASSIUM [1] was 6.59 MEQ/L, the SODIUM [1] was 143.58 MEQ/L and the “TOTAL BILIRUBIN” value [1] was 0.22 mg/dL. The “TOTAL PROTEIN” value [1] was 6.15 G/DL, the “URIC ACID” value [1] was 1.3 mg/dL and the “ABSOLUTE BASOPHIL” value [2] was 0 CELLS/uL. For the same compound, the “ABSOLUTE EOSINOPHIL” value [2] was 91.17 CELLS/uL, the “ABSOLUTE LYMPHOCYTE” value [2] was 11847.67 CELLS/uL and the “ABSOLUTE MONOCYTE” value [2] was 172.83 CELLS/uL. The “ABSOLUTE SEGMENTED NEUTROPHIL” value [2] was 1105 CELLS/uL, the BASOPHIL [2] was 0% and the EOSINOPHIL [2] was 0.67%. The “ERYTHROCYTE COUNT” value [2] was 5.35 x10E6/uL, the HEMATOCRIT [2] was 33.65% and the HEMOGLOBIN [2] was 13.42 G/DL. The “LEUKOCYTE COUNT” value [2] was 13.22 x10E3/uL, the LYMPHOCYTE [2] was 89.83% and the “MEAN CORPUSCULAR HEMOGLOBIN” value [2] was 25.12 pg. The “MEAN CORPUSCULAR HEMOGLOBIN CONCENTRATION” value [2] was 39.9 G/DL, the “MEAN CORPUSCULAR VOLUME” value [2] was 63 fL and the MONOCYTE [2] was 1.33%. The NEUTROPHIL [2] was 8.17%, the “NUCLEATED RED BLOOD CELLS” value [2] was 0 /100WBC and the “PLATELET COUNT” value [2] was 1347.83 x10E3/uL. The “ALANINE AMINOTRANSFERASE” value [2] was 50 u/L, the ALBUMIN [2] was 4.1 G/DL and the “ALKALINE PHOSPHATASE” value [2] was 329.17 u/L. For the same compound, the “ASPARTATE AMINOTRANSFERASE” value [2] was 77.17 u/L, the “BLOOD UREA NITROGEN” value [2] was 16.83 mg/dL and the “CARBON DIOXIDE” value [2] was 34.83 mmol/L. For the same compound, the CHLORIDE [2] was 99.83 MEQ/L, the CHOLESTEROL [2] was 75.67 mg/dL and the “CREATINE PHOSPHOKINASE” value [2] was 295.83 u/L. For the same compound, the CREATININE [2] was 0.18 mg/dL, the GLUCOSE [2] was 156.33 mg/dL and the “LACTATE DEHYDROGENASE” value [2] was 166.83 u/L. For the same compound, the LIPASE [2] was 9.83 u/L, the PHOSPHORUS [2] was 12.18 mg/dL and the POTASSIUM [2] was 6.69 MEQ/L. For the same compound, the SODIUM [2] was 143.97 MEQ/L, the “TOTAL BILIRUBIN” value [2] was 0.22 mg/dL and the “TOTAL PROTEIN” value [2] was 6.05 G/DL. The “URIC ACID” value [2] was 1.6 mg/dL, the “ABSOLUTE BASOPHIL” value [3] was 0 CELLS/uL and the “ABSOLUTE EOSINOPHIL” value [3] was 26.67 CELLS/uL. For the same compound, the “ABSOLUTE LYMPHOCYTE” value [3] was 6989.67 CELLS/uL, the “ABSOLUTE MONOCYTE” value [3] was 0 CELLS/uL and the “ABSOLUTE SEGMENTED NEUTROPHIL” value [3] was 550.33 CELLS/uL. The BASOPHIL [3] was 0%, the EOSINOPHIL [3] was 0.33% and the “ERYTHROCYTE COUNT” value [3] was 5.05 x10E6/uL. For the same compound, the HEMATOCRIT [3] was 33.17%, the HEMOGLOBIN [3] was 13.07 G/DL and the “LEUKOCYTE COUNT” value [3] was 7.57 x10E3/uL. For the same compound, the LYMPHOCYTE [3] was 92.33%, the “MEAN CORPUSCULAR HEMOGLOBIN” value [3] was 25.9 pg and the “MEAN CORPUSCULAR HEMOGLOBIN CONCENTRATION” value [3] was 39.43 G/DL. The “MEAN CORPUSCULAR VOLUME” value [3] was 65.6 fL, the MONOCYTE [3] was 0% and the NEUTROPHIL [3] was 7.33%. For the same compound, the “NUCLEATED RED BLOOD CELLS” value [3] was 0 /100WBC, the “PLATELET COUNT” value [3] was 1158.33 x10E3/uL and the “ALANINE AMINOTRANSFERASE” value [3] was 58.33 u/L. The ALBUMIN [3] was 4.43 G/DL, the “ALKALINE PHOSPHATASE” value [3] was 511.33 u/L and the “ASPARTATE AMINOTRANSFERASE” value [3] was 103 u/L. The “BLOOD UREA NITROGEN” value [3] was 13.33 mg/dL, the “CARBON DIOXIDE” value [3] was 32 mmol/L and the CHLORIDE [3] was 102 MEQ/L. The CHOLESTEROL [3] was 71 mg/dL, the “CREATINE PHOSPHOKINASE” value [3] was 208.67 u/L and the CREATININE [3] was 0.19 mg/dL. The GLUCOSE [3] was 141.33 mg/dL, the “LACTATE DEHYDROGENASE” value [3] was 161.67 u/L and the LIPASE [3] was 10 u/L. For the same compound, the PHOSPHORUS [3] was 12.97 mg/dL, the POTASSIUM [3] was 6.87 MEQ/L and the SODIUM [3] was 150.3 MEQ/L. The “TOTAL BILIRUBIN” value [3] was 0.2 mg/dL, the “TOTAL PROTEIN” value [3] was 6.27 G/DL and the “URIC ACID” value [3] was 0.83 mg/dL. The “ABSOLUTE BASOPHIL” value [4] was 0 CELLS/uL, the “ABSOLUTE EOSINOPHIL” value [4] was 207.33 CELLS/uL and the “ABSOLUTE LYMPHOCYTE” value [4] was 12679.33 CELLS/uL. For the same compound, the “ABSOLUTE MONOCYTE” value [4] was 80 CELLS/uL, the “ABSOLUTE SEGMENTED NEUTROPHIL” value [4] was 1400 CELLS/uL and the BASOPHIL [4] was 0%. The EOSINOPHIL [4] was 1.33%, the “ERYTHROCYTE COUNT” value [4] was 5.41 x10E6/uL and the HEMATOCRIT [4] was 34.5%. The HEMOGLOBIN [4] was 13.87 G/DL, the “LEUKOCYTE COUNT” value [4] was 14.37 x10E3/uL and the LYMPHOCYTE [4] was 88%. The “MEAN CORPUSCULAR HEMOGLOBIN” value [4] was 25.6 pg, the “MEAN CORPUSCULAR HEMOGLOBIN CONCENTRATION” value [4] was 40.23 G/DL and the “MEAN CORPUSCULAR VOLUME” value [4] was 63.73 fL. The MONOCYTE [4] was 0.67%, the NEUTROPHIL [4] was 10% and the “NUCLEATED RED BLOOD CELLS” value [4] was 0 /100WBC. The “PLATELET COUNT” value [4] was 1310 x10E3/uL, the “ALANINE AMINOTRANSFERASE” value [4] was 52.67 u/L and the ALBUMIN [4] was 4.17 G/DL. The “ALKALINE PHOSPHATASE” value [4] was 362.33 u/L, the “ASPARTATE AMINOTRANSFERASE” value [4] was 87.67 u/L and the “BLOOD UREA NITROGEN” value [4] was 16.33 mg/dL. For the same compound, the “CARBON DIOXIDE” value [4] was 30.33 mmol/L, the CHLORIDE [4] was 105.67 MEQ/L and the CHOLESTEROL [4] was 78.33 mg/dL. For the same compound, the “CREATINE PHOSPHOKINASE” value [4] was 263.33 u/L, the CREATININE [4] was 0.18 mg/dL and the GLUCOSE [4] was 153.33 mg/dL. The “LACTATE DEHYDROGENASE” value [4] was 272.67 u/L, the LIPASE [4] was 9 u/L and the PHOSPHORUS [4] was 13.37 mg/dL. The POTASSIUM [4] was 7.11 MEQ/L, the SODIUM [4] was 149.4 MEQ/L and the “TOTAL BILIRUBIN” value [4] was 0.2 mg/dL. The “TOTAL PROTEIN” value [4] was 6.07 G/DL and the “URIC ACID” value [4] was 1.5 mg/dL.
